Consider 4 molecules from US20230285364A1, “USE OF A DHODH INHIBITOR COMPOUND IN COMBINATION CANCER THERAPY” (Servier Pharmaceuticals LLC, priority 2020, published 2023).

Read-outs that look alike come from different tables or passages of the source.

In data set [1] the test system is MOLM13 xenograft model of AML. It counts as in vivo.
Method: 5 × 10^6 MOLM13 cells were implanted subcutaneously into 5-6 week-old female CB17 SCID mice in serum free media with Matrigel 1:1. Tumor volume and body weights were monitored twice a week until the tumors reached ~ 150 mm^3. […] At the end of study, tumor, plasma, and liver tissues were collected at the indicated timepoints post-last dose for PK and biomarker analyses. […] Venetoclax was formulated with 60% Phosal 50, 30% PEG 400, and 10% ethanol and stored at 4° C.
Data set [2] deals with OCILY19 xenograft model of DLBCL. In kind it is in vivo.
Method: 5 × 10^6 OCILY cells were implanted subcutaneously into 5-6 week-old female CB17 SCID mice in serum free media with Matrigel 1:1. Tumor volume and body weights were monitored twice a week until the tumors reached ~ 150 mm^3. […] At the end of study, tumor, plasma, and liver tissues were collected at the indicated timepoints post-last dose for PK and biomarker analyses. […] Venetoclax was formulated with 60% Phosal 50, 30% PEG 400, and 10% ethanol and stored at 4° C.
For data set [3] the following is noted: cited from earlier work.

Turning to “4-(4-{ [2-(4-chlorophenyl)-4,4- dimethylcyclohex-1-en-1-yl]methyl}piperazin-1-yl)-N-({3-nitro-4-[(tetrahydro-2H-pyran-4-ylmethyl)amino]phenyl}sulfonyl)-2-(1H-pyrrolo[2,3-b]pyridin-5-yloxy)benzamide) [Venetoclax]”, the “Tumor Growth Inhibition” value in data set [1] (Venetoclax 30 mg/kg alone) amounted to 27%; in data set [2] (Venetoclax 1 mg/kg alone) it was 3.6%. The “effect on tumor growth” value in data set [2] (venetoclax alone at the 1 m/kg dose) is reported as “no effect”.
On to `Nc1ncn([C@@H]2O[C@H](CO)[C@@H](O)[C@H]2O)c(=O)n1` [Azacitidine, 4-amino-1-β-D-ribofuranozyl-s-triazin-2(1H)-one], for which the solubility result in data set [3] (acetone, ethanol and methyl ketone) is given as “insoluble”; in data set [3] (dimethylsulfoxide (DMSO)) it was “soluble”; in data set [3] (ethanol/water (50/50), propylene glycol and polyethylene glycol), “slightly soluble”; in data set [3] (water, water-saturated octanol, 5% dextrose in water, N-methyl-2-pyrrolidone, normal saline and 5% Tween 80 in water), “sparingly soluble”.
As to `Cc1ccccc1-c1ccc(-c2cc(C(=O)O)c3c(c2)nnn3C)cc1` [Compound 1, 1-methyl-5-(2′-methyl-[1,1′-biphenyl]-yl)-1H-benzo[d][1,2,3]triazole-7-carboxylic acid], the “Tumor Growth Inhibition” value was 24% in data set [1] (Compound 1 30 mg/kg alone) and 56% in data set [2] (Compound 1 30 mg/kg BID alone).
For the molecule `Nc1ncn([C@H]2C[C@H](O)[C@@H](CO)O2)c(=O)n1` [Decitabine, 4-amino-1-(2-deoxy-β-D-erythro-pentofuranosyl)-1,3,5-triazin-2(1H)one], the solubility result in data set [3] (dimethylsulfoxide (DMSO)) is “soluble”; in data set [3] (ethanol/water (50/50), methanol/water (50/50) and methanol) it was “slightly soluble”; in data set [3] (water), “sparingly soluble”.
